Values after ≈ are worked out from the molar mass of the structure shown. Read-outs that look alike come from different tables or passages of the source.
Experiments:
EGFR = EGFR (Homo sapiens, UniProt P00533); assay: Affinity for EGFR / anti-EGFR activity; assay type: binding
AP2M1 phosphorylation = AP2M1 phosphorylation by Western analysis in Huh-7.5 cells; assay type: cell-based, human; details: calyculin A, vs DMSO control
Vero76 = details: African green monkey
cell culture grown DENV = assay: DENV infection of Huh-7 cells, Renilla luciferase assay; assay type: cell-based; details: Dengue virus, Huh-7, 72 h, read-out: EC50, DENV infection
in vitro = details: African green monkey
GAK = biological target: T1, GAK (Homo sapiens, UniProt O14976); assay: GAK binding assay (T7 phage kinase competition binding); details: for remaining binding at 10 µM: single concentration of 10 μM, lower numbers indicate stronger hits
T1 construct: made in house; host or cells: T7 phage grown in E. coli host derived from BL21
T1 sequence (O14976 1-1311): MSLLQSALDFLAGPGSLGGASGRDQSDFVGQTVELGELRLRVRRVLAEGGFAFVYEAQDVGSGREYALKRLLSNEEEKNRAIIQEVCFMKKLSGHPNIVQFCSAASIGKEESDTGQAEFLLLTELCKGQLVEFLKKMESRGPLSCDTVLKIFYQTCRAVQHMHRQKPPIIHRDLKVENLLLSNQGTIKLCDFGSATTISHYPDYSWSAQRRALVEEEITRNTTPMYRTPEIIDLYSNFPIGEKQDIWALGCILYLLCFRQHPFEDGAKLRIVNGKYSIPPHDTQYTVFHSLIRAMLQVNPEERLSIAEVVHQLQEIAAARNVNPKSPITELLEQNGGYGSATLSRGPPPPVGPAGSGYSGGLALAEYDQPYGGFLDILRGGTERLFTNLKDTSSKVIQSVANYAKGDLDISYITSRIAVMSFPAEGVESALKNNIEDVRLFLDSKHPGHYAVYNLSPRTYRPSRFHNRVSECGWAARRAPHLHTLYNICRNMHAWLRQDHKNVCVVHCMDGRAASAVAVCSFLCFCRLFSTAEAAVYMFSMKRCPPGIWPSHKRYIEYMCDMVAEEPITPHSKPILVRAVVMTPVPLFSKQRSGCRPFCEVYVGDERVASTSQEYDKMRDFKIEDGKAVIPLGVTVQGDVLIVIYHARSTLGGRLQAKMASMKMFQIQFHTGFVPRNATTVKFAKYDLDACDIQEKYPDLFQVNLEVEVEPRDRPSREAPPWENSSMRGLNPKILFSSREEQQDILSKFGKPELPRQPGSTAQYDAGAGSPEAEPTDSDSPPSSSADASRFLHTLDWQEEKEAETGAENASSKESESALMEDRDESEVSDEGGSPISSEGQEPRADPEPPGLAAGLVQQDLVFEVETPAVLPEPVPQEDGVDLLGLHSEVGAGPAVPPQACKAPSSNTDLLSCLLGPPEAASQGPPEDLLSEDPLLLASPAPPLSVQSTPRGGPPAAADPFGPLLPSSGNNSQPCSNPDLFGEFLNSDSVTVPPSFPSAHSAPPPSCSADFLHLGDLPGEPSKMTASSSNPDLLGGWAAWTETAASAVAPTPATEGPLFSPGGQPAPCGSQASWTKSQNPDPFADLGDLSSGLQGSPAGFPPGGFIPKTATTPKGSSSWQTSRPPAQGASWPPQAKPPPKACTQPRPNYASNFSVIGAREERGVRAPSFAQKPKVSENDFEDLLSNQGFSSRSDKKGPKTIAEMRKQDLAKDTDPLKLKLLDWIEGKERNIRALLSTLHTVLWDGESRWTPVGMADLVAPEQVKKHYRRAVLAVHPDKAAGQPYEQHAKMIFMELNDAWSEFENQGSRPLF

Huh-7.5 cells [1] = details: human
Huh-7.5 cells [2] = assay: Viability assay, alamarBlue, Huh-7.5 cells; details: HCVpp entry experiment
[3] = test system: SARS Coronavirus (Virus strain: Urbani); assay: microbe, parasite or virus in culture; assay type: cell-based
Huh-7 cells = assay: Viability assay, alamarBlue, DENV infected Huh-7 cells; details: 72 hours
HCV RNA replication = HCV RNA replication by luciferase assays; assay type: cell-based; details: 72 hours postelectroporation, daily treatment
[4] = test system: VSV-EB GFP-reporter virus (VSV bearing surface glycoprotein of EBOV); assay type: cell-based, Ebola virus
[5] = Severe acute respiratory syndrome coronavirus, Vero 76

Chain of EGFR (P00533 25-1210): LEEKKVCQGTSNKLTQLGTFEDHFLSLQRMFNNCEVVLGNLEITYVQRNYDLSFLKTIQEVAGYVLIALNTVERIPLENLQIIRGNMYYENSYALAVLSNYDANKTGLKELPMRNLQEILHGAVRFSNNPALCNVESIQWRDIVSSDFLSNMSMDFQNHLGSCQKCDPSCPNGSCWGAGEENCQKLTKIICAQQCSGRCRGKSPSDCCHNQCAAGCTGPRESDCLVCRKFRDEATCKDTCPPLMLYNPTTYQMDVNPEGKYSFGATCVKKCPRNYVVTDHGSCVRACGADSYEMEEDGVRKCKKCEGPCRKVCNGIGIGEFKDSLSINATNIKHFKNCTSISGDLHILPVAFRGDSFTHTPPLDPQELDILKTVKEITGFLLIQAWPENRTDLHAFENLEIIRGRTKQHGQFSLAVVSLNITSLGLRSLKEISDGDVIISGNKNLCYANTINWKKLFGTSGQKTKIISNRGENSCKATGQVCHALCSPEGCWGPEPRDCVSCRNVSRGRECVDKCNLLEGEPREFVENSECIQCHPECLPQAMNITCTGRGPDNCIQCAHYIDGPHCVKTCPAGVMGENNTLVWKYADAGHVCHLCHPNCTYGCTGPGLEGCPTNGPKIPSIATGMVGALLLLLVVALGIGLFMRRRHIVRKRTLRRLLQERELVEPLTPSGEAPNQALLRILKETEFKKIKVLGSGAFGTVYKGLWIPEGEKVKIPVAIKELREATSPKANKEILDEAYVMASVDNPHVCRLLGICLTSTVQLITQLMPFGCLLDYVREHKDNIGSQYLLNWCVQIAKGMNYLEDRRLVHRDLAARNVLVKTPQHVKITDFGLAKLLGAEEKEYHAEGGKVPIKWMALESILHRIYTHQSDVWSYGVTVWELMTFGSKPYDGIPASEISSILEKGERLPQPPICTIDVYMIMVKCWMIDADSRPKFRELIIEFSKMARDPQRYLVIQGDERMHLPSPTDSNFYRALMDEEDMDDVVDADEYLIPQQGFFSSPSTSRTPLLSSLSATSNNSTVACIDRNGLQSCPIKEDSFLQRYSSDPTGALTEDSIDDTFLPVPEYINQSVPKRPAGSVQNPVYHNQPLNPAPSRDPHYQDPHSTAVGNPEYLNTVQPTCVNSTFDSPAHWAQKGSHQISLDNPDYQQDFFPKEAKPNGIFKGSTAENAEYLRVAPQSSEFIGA

SMILES	anti-EGFR activity (EGFR)	p-AP2M1 to AP2M1 ratios (AP2M1 phosphorylation)	CC50 (Vero76) [µg/mL]	EC50 (cell culture grown DENV) [nM]	CC50 (in vitro) [µg/mL]	Kd (GAK) [nM]	remaining binding at 10 µM (GAK; read-out: % Ctrl) [%]	CC50 (Huh-7.5 cells [1]) [nM]	effect on cellular viability (Huh-7.5 cells [2])	EC50 [3] [µg/mL]	EC50 [3, 5] [µg/mL]	effect on cellular viability (Huh-7 cells)	effect on HCV RNA replication (HCV RNA replication)	effect on VSV-EB infection, treatment alone [4]	% of control binding at 10 µM (GAK; read-out: % Ctrl) [%]
COc1cc(-c2cnc3c(N4CCOCC4)snc3c2)cc(OC)c1OC [Example 49, 4-(6-(3,4,5-Trimethoxyphenyl)isothiazolo[4,3-b]pyridin-3-yl)morpholine]	lack anti-EGFR activity	reduced by either 49 or 50 in a dose-dependent manner	50 (≈ 129 µM)	800	34 (≈ 87.8 µM)	8.3	0	23300 ± 3400	minimal effect on cellular viability	0.77 (≈ 1.99 µM)	1.2 (≈ 3.1 µM)	minimal effect on cellular viability	did not affect HCV RNA replication	–	–
COc1cc(-c2cnc3c(N4CCOCC4)snc3c2)ccc1N [Example 50, 2-Methoxy-4-(3-morpholinoisothiazolo[4,3-]pyridin-6-yl)aniline]	lack anti-EGFR activity	–	13 (≈ 38 µM)	2600	15 (≈ 43.8 µM)	8.9	–	–	–	3.2 (≈ 9.35 µM)	2.4 (≈ 7.01 µM)	–	did not affect HCV RNA replication	minimal inhibition of infection	0
COc1ccc(-c2cnc3c(NCCc4ccccc4)snc3c2)cc1OC [Example 74, 6-(3,4-dimethoxyphenyl)-N-phenethylisothiazolo[4,3-b]pyridin-3-amine]	–	–	>100	–	> 100	–	81	–	–	5.8 (≈ 14.8 µM)	4.5 (≈ 11.5 µM)	–	–	–	–

— patent US9822127B2, “GAK modulators as antivirals” (Katholieke Universiteit Leuven, priority 2014, dated 2017)
